Assay results: the NIST ThermoML archive (doi:10.1021/je020110g)
Numbers after ± are expanded uncertainties.

What was measured:
[1] = Liquid
[2] = excess molar enthalpy (molar enthalpy of mixing); xn = mol fraction of the nth substance listed; conditions: 298.15 K, 101.3 kPa, Liquid, Flow calorimetry

CCCCBr [1-bromobutane]
[1]
Conditions | vapor or sublimation pressure [kPa]
278.15 K | 1.86 ± 0.014
283.15 K | 2.48 ± 0.015
288.15 K | 3.265 ± 0.016
293.15 K | 4.261 ± 0.017
298.15 K | 5.506 ± 0.018
303.15 K | 7.039 ± 0.02
308.15 K | 8.899 ± 0.023
313.15 K | 11.15 ± 0.026
318.15 K | 13.87 ± 0.03
323.15 K | 17.09 ± 0.035

CCCCBr [1-bromobutane] + CC(C)CO
[2]
Conditions | excess molar enthalpy [kcal/mol]
x2 = 0.0421 | 0.127 ± 0.00287
x2 = 0.0942 | 0.203 ± 0.0043
x2 = 0.1932 | 0.269 ± 0.00574
x2 = 0.2938 | 0.298 ± 0.00645
x2 = 0.3468 | 0.304 ± 0.00645
x2 = 0.3957 | 0.304 ± 0.00645
x2 = 0.4476 | 0.298 ± 0.00645
x2 = 0.499 | 0.288 ± 0.00621
x2 = 0.6 | 0.258 ± 0.0055
x2 = 0.7021 | 0.213 ± 0.00454
x2 = 0.8052 | 0.152 ± 0.00335
x2 = 0.906 | 0.0789 ± 0.00167
x2 = 0.9587 | 0.038 ± 0.000956

CCCCBr [1-bromobutane] + CCC(C)O
[2]
Conditions | excess molar enthalpy [kcal/mol]
x2 = 0.0424 | 0.124 ± 0.00263
x2 = 0.0948 | 0.221 ± 0.00478
x2 = 0.1942 | 0.306 ± 0.00645
x2 = 0.2951 | 0.35 ± 0.00741
x2 = 0.3482 | 0.363 ± 0.00765
x2 = 0.3973 | 0.369 ± 0.00789
x2 = 0.4492 | 0.366 ± 0.00789
x2 = 0.5006 | 0.36 ± 0.00765
x2 = 0.6015 | 0.333 ± 0.00717
x2 = 0.7035 | 0.285 ± 0.00621
x2 = 0.8062 | 0.212 ± 0.00454
x2 = 0.9066 | 0.117 ± 0.00263
x2 = 0.959 | 0.0588 ± 0.00143

CC(C)CO [2-methyl-1-propanol]
[1]
Conditions | vapor or sublimation pressure [kPa]
278.15 K | 0.335 ± 0.011
283.15 K | 0.505 ± 0.011
288.15 K | 0.739 ± 0.012
293.15 K | 1.057 ± 0.013
298.15 K | 1.501 ± 0.014
303.15 K | 2.133 ± 0.014
308.15 K | 2.956 ± 0.015
313.15 K | 4.026 ± 0.016
318.15 K | 5.444 ± 0.018
323.15 K | 7.237 ± 0.02

CCC(C)O (stereo unspecified) [butan-2-ol]
[1]
Conditions | vapor or sublimation pressure [kPa]
278.15 K | 0.519 ± 0.011
283.15 K | 0.78 ± 0.012
288.15 K | 1.137 ± 0.013
293.15 K | 1.648 ± 0.014
298.15 K | 2.324 ± 0.014
303.15 K | 3.256 ± 0.016
308.15 K | 4.462 ± 0.017
313.15 K | 6.048 ± 0.019
318.15 K | 8.105 ± 0.022
323.15 K | 10.71 ± 0.025
